Blank lines part the entries; values can stand above or below the molecule they belong to.
Columns and labels:
[1] = system: Human umbilical vein endothelial cells (HUVECs); experiment: [3H]thymidine incorporation assay: VEGF-induced cell proliferation (DNA synthesis) of HUVECs; type: cell-based; settings: VEGF 10 ng/mL; for activity on VEGF-induced cell proliferation of HUVECs compared with positive control YD-3: 1 μM
Procedure: (§1) Human umbilical vein endothelial cells were incubated in the absence (basal and control) or presence of tested sample (YD-3, 10, 15, 17, 21, 25, 26) with 30 μM, and then vascular endothelial growth factor (VEGF) was added (except for basal) to induce DNA synthesis, which was detected using [^3H] thymidine incorporation assay.
as §1, with “10” for “30”, “inducd” for “induce”, “assay. Means±S.E. (n=5) were presented.” for “assay.”
as §1, with “1” for “30”, “inducd” for “induce”, “assay. Means±S.E. (n=5) were presented.” for “assay.”
(§2) Human umbilical vein endothelial cells (HUVECS) were isolated according to the protocols from Jaffe et al. and obtained from human umbilical cord veins with collagenase and cultured in 75 cm^2 plastic flasks in M199 containing 20% FBS, 15 μg/mL endothelial cell growth supplements (ECGs). Confirmation of their identity as endothelial cells was provided by detection of CD31 (PECAM-1), assessed by immunostaining. Experiments were conducted on HUVECs that had used in passage 2 to 5.
Confluent HUVECs were trypsinized, suspended in DMEM supplemented with 20% FBS, and seeded at 1.0×10^4 cells per well into 96-well plates. After 24 h, the cells were washed twice with PBS and starved with 2% FBS-M199 medium for 24 h. The cells were incubated with or without indicated reagents and growth factors (VEGF; 10 ng/mL) for 24 h and harvested. Before the harvest, cells were incubated with [^3H]thymidine (2 μCi/mL) for 4 h, harvested with Filter-Mate (Packard), and incorporated radioactivity was determined.
The effect of tested compounds on VEGF-induced cell proliferation of HUVECs was assessed with the [^3H]thymidine incorporation assay, and the results were illustrated in FIG. 5-FIG. 7.

[2] = system: Human umbilical vein endothelial cells (HUVECs); experiment: VEGF-induced tube formation of HUVECs on Matrigel; type: cell-based; settings: FIG. 8; for blockage of VEGF-induced tube formation of HUVECs: Matrigel-coated chamberslide
Procedure: FIG. 8 show photographs of the results of in vitro assay (inhibition of tube formation). Human umbilical vein endothelial cells were cultured onto chamberslide, which was precoated with Matrigel (10 mg/ml). Cells were treated without (basal and control) or with tested sample (YD-3, 10, 15, 17, 21, 25, 26) and then vascular endothelial growth factor (VEGF) was added to induce tube formation. All photographs were taken at 100×magnification.
as §2

[3] = system: VEGF-induced angiogenesis in Matrigel plug; experiment: In vivo Matrigel plug assay (neovascular formation, hemoglobin concentration); settings: nude mice, FIG. 9; for anti-angiogenic activity in Matrigel plug assay (hemoglobin concentration): 150 ng/ml VEGF plug, oral, seven-day administration
Procedure: Nude mice were subcutaneously injected with a Matrigel plug containing 150 ng/ml vascular endothelial growth factor (VEGF). Vehicle or tested sample (YD-3, 10, 15, 17, 21, 25, 26) was orally administered into the mice. After a seven-day administration, the animals were euthanized and the plugs were cut of the mice for the measurement of angiogenic effect using the hemoglobin concentration as the parameter by means of a hemoglobin detection kit (Sigma). Means±S.E. (n=3) were presented. Nude mice (6 weeks of age) were given s.c. injections of 500 μL of Matrigel (Becton Dickinson, Bedford, Mass.) at 4° C. with or without YC-1 and growth factor (150 ng/mL VEGF). After injection, the Matrigel rapidly formed a plug. After 7 days, the skin of the mouse was easily pulled back to expose the Matrigel plug, which remained intact. After quantitative differences were noted and photographed, hemoglobin was measured, as an indication of blood vessel formation, using the Drabkin method (Drabkin reagent kit 525, Sigma, St. Louis, Mo.). The concentration of hemoglobin was calculated from a known amount of hemoglobin assayed in parallel. The in vivo Matrigel plug assay was used in this study to determine quantitative the anti-angiogenic effect of tested compounds.

[4] = system: angiogenesis; experiment: Evaluation for anti-angiogenic activities (overall summary); settings: summary statement
Procedure: 3-(4-Methylphenyl)-1H-indazole (10) and N^2-(substituted benzyl)-3-(4-methylphenyl)indazoles (15, 17, 21, 25, 26) were evaluated for anti-angiogenic activities.
In this study, 3-(4-methylphenyl)-1H-indazole (10) and five of the above mentioned N^2-regioisomers, namely, compounds 15, 17, 21, 25 and 26 were selected for evaluating their effects on VEGF-induced cell proliferation, on VEGF-induced tube formation of HUVECs in vitro, and on neovascular formation in vivo.

melting point: 201 to 203 °C
SMILES: O=C(NO)c1ccc(-c2c3ccccc3nn2Cc2ccccc2)cc1 [Compound 38, 4-(2-Benzyl-2H-indazol-3-yl)-N-hydroxybenzamide]

melting point: 94 to 96 °C
SMILES: CCOC(=O)c1ccc(-c2c3ccccc3nn2Cc2ccccc2F)cc1 [Compound 32, Ethyl 4-[2-(2-fluorobenzyl)-2H-indazol-3-yl]benzoate]

melting point: 237 to 239 °C
SMILES: O=C(O)c1ccc(-c2c3ccccc3nn2Cc2ccc(F)cc2)cc1 [Compound 36, 4-[2-(4-Fluorobenzyl)-2H-indazol-3-yl]benzoic acid]

melting point: 106 to 107 °C
SMILES: Cc1ccc(-c2n[nH]c3ccccc23)cc1 [Compound 10, 3-(4-Methylphenyl)-1H-indazole]
inhibitory effect on VEGF-induced cell proliferation of HUVECs ([3H]thymidine incorporation) ([1]; 10 μM, FIG. 6): significant inhibitory effect | inhibitory effect on VEGF-induced cell proliferation of HUVECs ([3H]thymidine incorporation) ([1]; 30 μM, FIG. 5): significant inhibitory effect

melting point: 125 to 128.8 °C
SMILES: Cc1ccc(-c2c3ccccc3nn2Cc2ccccc2C)cc1 [Compound 23, 2-(2-Methylbenzyl)-3-(4-methylphenyl)-2H-indazole]

melting point: 98 to 100 °C
SMILES: Cc1ccc(-c2c3ccccc3nn2Cc2cccc(Cl)c2)cc1 [Compound 17, 2-(3-Chlorobenzyl)-3-(4-methylphenyl)-2H-indazole]
inhibitory effect on VEGF-induced cell proliferation of HUVECs ([3H]thymidine incorporation) ([1]; 10 μM, FIG. 6): significant inhibitory effect | inhibitory effect on VEGF-induced cell proliferation of HUVECs ([3H]thymidine incorporation) ([1]; 30 μM, FIG. 5): significant inhibitory effect | blockage of VEGF-induced tube formation of HUVECs [2]: significant blockage | anti-angiogenic activity in Matrigel plug assay (hemoglobin concentration) [3]: significant anti-angiogenic activities

melting point: 99 to 101 °C
SMILES: COC(=O)c1ccc(-c2nn(Cc3ccco3)c3ccccc23)cc1 [Compound 33, Methyl 4-[1-(2-furylmethyl)-1H-indazol-3-yl]benzoate]

melting point: 131.3 to 137.8 °C
SMILES: Cc1ccc(-c2c3ccccc3nn2Cc2ccccc2Cl)cc1 [Compound 19, 2-(2-Chlorobenzyl)-3-(4-methylphenyl)-2H-indazole]

melting point: 118 to 120 °C
SMILES: COC(=O)c1ccc(-c2nn(Cc3ccc(F)cc3)c3ccccc23)cc1 [Compound 29, Methyl 4-[1-(4-fluorobenzyl)-1H-indazol-3-yl]benzoate]

melting point: 114.1 to 116.5 °C
SMILES: Cc1ccc(-c2nn(Cc3ccccc3C)c3ccccc23)cc1 [Compound 22, 1-(2-Methylbenzyl)-3-(4-methylphenyl)-1H-indazole]

melting point: 133 to 135 °C
SMILES: CCOC(=O)c1ccc(-c2n[nH]c3ccccc23)cc1 [Compound 11, Ethyl 4-(1H-indazol-3-yl)benzoate]

melting point: 102 to 103 °C
SMILES: CCOC(=O)c1ccc(-c2nn(Cc3ccccc3F)c3ccccc23)cc1 [Compound 31, Ethyl 4-[1-(2-fluorobenzyl)-1H-indazol-3-yl]benzoate]

melting point: 79.6 to 82.3 °C
SMILES: Cc1ccc(Cn2nc(-c3ccc(C)cc3)c3ccccc32)cc1 [Compound 20, 1-(4-Methylbenzyl)-3-(4-methylphenyl)-1H-indazole]

melting point: 121 to 122 °C
SMILES: COC(=O)c1ccc(-c2c3ccccc3nn2Cc2ccc(F)cc2)cc1 [Compound 30, Methyl 4-[2-(4-fluorobenzyl)-2H-indazol-3-yl]benzoate]

melting point: 110.7 to 111.3 °C
SMILES: Cc1ccc(-c2c3ccccc3nn2Cc2ccccc2)cc1 [Compound 26, 2-Benzyl-3-(4-methylphenyl)-2H-indazole]
inhibitory effect on VEGF-induced cell proliferation of HUVECs ([3H]thymidine incorporation) ([1]; 10 μM, FIG. 6): significant inhibitory effect | inhibitory effect on VEGF-induced cell proliferation of HUVECs ([3H]thymidine incorporation) ([1]; 30 μM, FIG. 5): significant inhibitory effect | blockage of VEGF-induced tube formation of HUVECs [2]: significant blockage | anti-angiogenic activity in Matrigel plug assay (hemoglobin concentration) [3]: significant anti-angiogenic activities

melting point: 112 to 113 °C
SMILES: CCOC(=O)c1ccc(-c2c3ccccc3nn2Cc2ccccc2)cc1 [Compound 28, Ethyl 4-(2-benzyl-2H-indazol-3-yl)benzoate]

melting point: 107.5 to 109.3 °C
SMILES: Cc1ccc(Cn2nc3ccccc3c2-c2ccc(C)cc2)cc1 [Compound 21, 2-(4-Methylbenzyl)-3-(4-methylphenyl)-2H-indazole]
activity on VEGF-induced cell proliferation of HUVECs compared with positive control YD-3 [1]: better activity than positive control YD-3 | inhibitory effect on VEGF-induced cell proliferation of HUVECs ([3H]thymidine incorporation) ([1]; 10 μM, FIG. 6): significant inhibitory effect | inhibitory effect on VEGF-induced cell proliferation of HUVECs ([3H]thymidine incorporation) ([1]; 30 μM, FIG. 5): significant inhibitory effect | inhibitory activity on tube formation compared with other tested compounds and YD-3 [2]: more potent than other tested compounds and YD-3 | blockage of VEGF-induced tube formation of HUVECs [2]: significant blockage | anti-angiogenic activity in Matrigel plug assay (hemoglobin concentration) [3]: significant anti-angiogenic activities | anti-angiogenic potency in Matrigel plug assay compared with positive control YD-3 [3]: superior potency than the positive control YD-3 | anti-angiogenic activity (overall) [4]: significant anti-angiogenic activity

melting point: 140 to 143 °C
SMILES: COC(=O)c1ccc(-c2c3ccccc3nn2Cc2ccco2)cc1 [Compound 34, Methyl 4-[2-(2-furylmethyl)-2H-indazol-3-yl]benzoate]

melting point: 129 to 130 °C
SMILES: OCc1ccc(-c2c3ccccc3nn2Cc2ccco2)cc1 [Compound 40, {4-[2-(2-Furylmethyl)-2H-indazol-3-yl]phenyl]methanol]

melting point: 79.9 to 82.3 °C
SMILES: Cc1ccc(-c2nn(Cc3ccc(Cl)cc3)c3ccccc23)cc1 [Compound 14, 1-(4-Chlorobenzyl)-3-(4-methylphenyl)-1H-indazole]

melting point: 77.6 to 78.8 °C
SMILES: Cc1ccc(-c2nn(Cc3ccccc3Cl)c3ccccc23)cc1 [Compound 18, 1-(2-Chlorobenzyl)-3-(4-methylphenyl)-1H-indazole]

melting point: 113.6 to 115 °C
SMILES: COc1ccc(Cn2nc3ccccc3c2-c2ccc(C)cc2)cc1 [Compound 25, 2-(4-Methoxylbenzyl)-3-(4-methylphenyl)-2H-indazole]
activity on VEGF-induced cell proliferation of HUVECs compared with positive control YD-3 [1]: better activity than positive control YD-3 | inhibitory effect on VEGF-induced cell proliferation of HUVECs ([3H]thymidine incorporation) ([1]; 10 μM, FIG. 6): significant inhibitory effect | inhibitory effect on VEGF-induced cell proliferation of HUVECs ([3H]thymidine incorporation) ([1]; 30 μM, FIG. 5): significant inhibitory effect | inhibitory activity on tube formation compared with other tested compounds and YD-3 [2]: more potent than other tested compounds and YD-3 | blockage of VEGF-induced tube formation of HUVECs [2]: significant blockage | anti-angiogenic activity in Matrigel plug assay (hemoglobin concentration) [3]: significant anti-angiogenic activities | anti-angiogenic potency in Matrigel plug assay compared with positive control YD-3 [3]: superior potency than the positive control YD-3 | anti-angiogenic activity (overall) [4]: significant anti-angiogenic activity

melting point: 159 to 163 °C
SMILES: O=C(O)c1ccc(-c2c3ccccc3nn2Cc2ccccc2)cc1 [Compound 35, 4-(2-Benzyl-2H-indazol-3-yl)benzoic acid]

melting point: 148 to 149 °C
SMILES: OCc1ccc(-c2c3ccccc3nn2Cc2ccccc2)cc1 [Compound 39, [4-(2-Benzyl-2H-indazol-3-yl)phenyl]methanol]

melting point: 66.6 to 68 °C
SMILES: Cc1ccc(-c2nn(Cc3cccc(Cl)c3)c3ccccc23)cc1 [Compound 16, 1-(3-Chlorobenzyl)-3-(4-methylphenyl)-1H-indazole]

— patent publication US20060106032A1, “Synthesis of N2 - (substituted arylmethyl) -3- (substituted phenyl) indazoles as novel anti-angiogenic agents” (YUNG SHIN PHARM. IND. CO., LTD., priority 2004, published 2006)
